Results reported in publication PMC5688144, “Assay interference and off-target liabilities of reported histone acetyltransferase inhibitors” (Nature Communications, 2017).
Entries after “also recorded” stand apart in the source; their conditions may differ. Like-named read-outs stand apart in the source and are kept apart here.

Key:
human La antigen = biological target: T1, human La antigen (Homo sapiens, UniProt P05455, T302N); assay: ALARM NMR; assay type: binding; conditions: 400 μM compound; for ALARM NMR, (-) DTT: 0 mM DTT; for ALARM NMR, (+) DTT: DTT present; for ALARM NMR interpretation: with and without DTT; for ALARM NMR readout: overall readout
T1 construct: amino acids 100–324 of the human La antigen (plus T302N mutation); 6xHis (N); 6xHis (C); host or cells: Escherichia coli Rosetta cells
T1 sequence (P05455 100-324 T302N): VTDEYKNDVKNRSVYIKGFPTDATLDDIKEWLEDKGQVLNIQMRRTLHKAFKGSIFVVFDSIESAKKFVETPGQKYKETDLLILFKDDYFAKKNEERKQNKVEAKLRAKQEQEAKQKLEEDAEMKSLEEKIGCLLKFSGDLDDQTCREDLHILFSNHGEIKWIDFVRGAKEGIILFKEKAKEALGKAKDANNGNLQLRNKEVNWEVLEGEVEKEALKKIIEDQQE
Excerpt: The gene encoding amino acids 100–324 of the human La antigen (plus T302N mutation) was cloned into pET28b + vector (Novagen) with both an N- and C-terminal 6xHis tag (addgene.org, plasmid ID 90209). The sequence identity of the ALARM NMR plasmid construct was verified by Sanger sequencing of the transgene region and next-generation sequencing of the whole plasmid.
Plasmid was transformed into Escherichia coli Rosetta cells (Novagen) and cultured in M9 minimal media. The La antigen was labeled by adding ^13C-labeled amino acid precursors ([3-^13C]-α-ketobutyrate and [3,3′-^13C]-α-ketoisovalerate sodium salts; Cambridge Isotope Laboratories; 250 mg L^−1 final concentrations) to culture medium 30 min before induction with IPTG (1 mM final concentration). Bacteria were collected after incubation at 25 °C for 8 h and washed with ice-cold phosphate-buffered saline (PBS). Washed cells were lysed by French press in ice-cold lysis buffer (50 mM Tris, pH 7.6, 300 mM NaCl, 10% glycerol (v/v), 5 mM β-mercaptoethanol (BME), 5 mM imidazole, 2 mM MgCl2, benzonase, and protease inhibitor cocktail), followed by an additional brief sonication step (3 × 15 s pulse sequence) on ice. This lysed solution was centrifuged (30,000×g for 30 min, two cycles) to remove cellular debris, then loaded onto a pre-washed Ni-NTA bead column (Qiagen) kept at 4 °C and washed with buffer (50 mM Tris, pH 7.6, 300 mM NaCl, 10% glycerol (v/v), 5 mM BME, 5 mM imidazole). The La antigen was eluted with an elution buffer (50 mM Tris, pH 7.6, 300 mM NaCl, 10% glycerol (v/v), 5 mM BME, imidazole gradient ranging from 5 mM to 0.5 M). […] Aliquots were flash-frozen in liquid N2 and stored at −80 °C until further use. Before use, aliquots of ~150 μM protein were incubated in the presence of 20 mM DTT at 37 °C for 1 h, then dialyzed (25 mM sodium phosphate buffer, pH 7.0 (no DTT)) in 16 h cycles at 4 °C with constant nitrogen bubbling and with gentle stirring, for three total buffer cycles.
For standard testing conditions, the [^1H-^13C]-HMQC spectra were acquired in 25 mM sodium phosphate buffer, pH 7.0, 10% D2O (v/v; CIL) ± 400 μM test compounds delivered from the aforementioned stock solutions, and ± 20 mM non-deuterated DTT. Final concentration of DMSO was 4.0% (v/v). Reaction solutions were mixed, then centrifuged for 5 min (1000×g) in non-binding 384-well microplates at RT, then incubated at 37 °C for 1 h and then 30 °C for 15 h before obtaining spectra. Samples were checked for evidence of gross precipitation. Data were recorded at 298 K on a Bruker UltraShield 700 MHz NMR spectrometer equipped with a Bruker 1.7 mm TCI Cryoprobe and Bruker SampleJet autosampler. Samples were tested at 50 μM protein concentrations using 16 scans, 2048 complex points in F2, and 80 points in F1 using standard protein [^1H-^13C]-HMQC and water suppression pulse sequences.
Data were analyzed in TopSpin™ 3.5 (Bruker). Reactions were normalized to equivalent DMSO controls. Non-reactive compounds were identified by the absence of chemical shifts or changes in peak intensities (^13C-methyl) ± 20 mM DTT.

p300/CBP = conditions: cited from earlier work; for IC50: original report, 27 (Supplementary References)

Compound	ALARM NMR, (-) DTT (human La antigen)	ALARM NMR, (+) DTT (human La antigen)	ALARM NMR interpretation (human La antigen)	IC50 (p300/CBP) [µM]	ALARM NMR readout (human La antigen)	% inhibition, p300/CBP (p300/CBP; @ 25 µM, ref 13 (Supplementary References)) [%]	% inhibition, p300/CBP (p300/CBP; @ 200 µM, ref 19 (Supplementary References)) [%]	% inhibition, p300/CBP (p300/CBP; @ 100 µM, ref 25 (Supplementary References)) [%]
CC1=NN(c2ccc(C(=O)O)cc2)C(=O)/C1=C/c1ccc(-c2cc(C)c(C)cc2[N+](=O)[O-])o1 [Compound 1, C646]	positive	Negative	Thiol-reactive	[…]	–	–	–	–
O=c1c2cccnc2sn1Cc1ccc(C(F)(F)F)cc1 [Compound 3, PU141]	Positive	Negative	Thiol-reactive	–	–	–	–	–
Cc1cc(O)cc(C)c1C=C1C(=O)N(Cc2ccccc2)C(=O)N(Cc2ccccc2)C1=O [Compound 4, EML425]	Positive	Negative	Thiol-reactive	–	positive	–	–	–
COc1ccc(S(=O)(=O)ON=C2C=C(C)C(=O)C(C)=C2)cc1 [Compound 5, L002]	Positive	Negative	Thiol-reactive	–	–	–	–	–
C=C1C(=O)O[C@H](CCC)[C@H]1C(=O)O [Compound 6, MB-3]	Positive	Negative	Thiol-reactive	–	–	–	–	–
Clc1ccc(-c2csc(NN=C3CCCC3)n2)cc1 [Compound 7, CPTH2]	Positive	Negative	Thiol-reactive	–	–	–	–	–
CCCCCCCCCCCC1=C(O)C(=O)C=C(O)C1=O [Compound 9, Embelin]	Positive	Positive	Thiol-reactive, nonspecific perturbation	–	–	25	–	–
O=C(O[C@@H]1Cc2c(O)cc(O)cc2O[C@@H]1c1cc(O)c(O)c(O)c1)c1cc(O)c(O)c(O)c1 [Compound 10, (-)-Epigallocatechin gallate]	Positive	Negative	Thiol-reactive	–	–	–	–	–
COc1cc(/C=C/C(=O)CC(=O)/C=C/c2ccc(O)c(OC)c2)ccc1O [Compound 11, Curcumin]	Partial	Negative	Equivocal	–	–	–	–	–
O=C1/C(=C/c2ccc(O)c(Br)c2)CCC/C1=C\c1ccc(O)c(Br)c1 [Compound 12, HAT inhibitor II]	Partial	Negative	Equivocal	5	–	–	–	–
CCCCCCCCCCCCCCCc1cccc(O)c1C(=O)O [Compound 14, Anacardic acid]	Positive	Positive	Nonspecific perturbation	8.5	–	–	–	–
CCCCCCCc1ccc(CCc2cccc(O)c2C(=O)O)cc1 [Compound 15, MG 149]	Positive	Positive	nonspecific protein perturbation; also recorded: potential aggregator	–	–	–	30	–
Cc1cc2c(C(C)C)c(O)c(O)c(C=O)c2c(O)c1-c1c(C)cc2c(C(C)C)c(O)c(O)c(C=O)c2c1O [Compound 16, Gossypol]	Positive	Positive	nonspecific protein perturbation	–	–	–	–	–
COc1cc(/C=C/c2cc(/C=C/c3ccc(O)c(OC)c3)n(-c3ccc(C(=O)[O-])cc3)n2)ccc1O.[Na+] [Compound 17, CTK7A]	Positive	Positive	several new peaks independent of DTT; also recorded: Nonspecific perturbation (new peaks)	–	–	–	–	–
COc1ccc(/C(Cl)=C(/C=O)c2ccc(OC)cc2)cc1 [Compound 18, Windorphen]	Negative	Negative	Inert as tested	–	negative	–	–	–
Cl.Cl.O=C(O)Cn1nnc(-c2ccc(CN(CCCCOc3ccc(CN4CCCC4)cc3)CCc3ccccc3)cc2)n1 [Compound 20, TH1834]	Negative	Negative	Inert as tested	–	–	–	–	–
CCCC1(c2ccccc2)NC(=O)N(CC(=O)N(C)Cc2c(F)cccc2Cl)C1=O (stereo not drawn) [Compound 21, N-[(2-chloro-6-fluorophenyl)methyl]-2-(2,5-dioxo-4-phenyl-4-propylimidazolidin-1-yl)-N-methylacetamide]	Negative	Negative	Inert as tested	–	–	–	–	< 25
Garcinol [Compound 13]	Positive	Positive	Nonspecific perturbation	5	–	–	–	–
Plumbagin [Compound 8]	Positive	Negative	Thiol-reactive	–	–	–	–	–
